In PubChem BioAssay AID1259407 (Chemical Carcinogenesis Research Information System (CCRIS), 2018):
The source made the active and inactive calls. How the calls were made is not given here.

Tested on: CCRIS mutagenicity, Ames/micronucleus/aberration tests
Assay: CCRIS mutagenicity studies

In the case of `CCOc1ccc(NC(C)=O)cc1N`, the mutagenic call (Test System: AMES SALMONELLA TYPHIMURIUM, Strain/Indicator: TA98, Metabolic Activation: HAMSTER, LIVER, S-9, AROCLOR 1254, Method: STANDARD PLATE) is reported as “active; positive”, the mutagenic call (Test System: AMES SALMONELLA TYPHIMURIUM, Strain/Indicator: TA98, Metabolic Activation: HAMSTER, LIVER, S-9, Method: STANDARD PLATE) is reported as “active; positive” and the mutagenic call (Test System: AMES SALMONELLA TYPHIMURIUM, Strain/Indicator: TA98, Metabolic Activation: MOUSE, LIVER, S-9, AROCLOR 1254, Method: STANDARD PLATE) is reported as “active; positive”. The mutagenic call (Test System: AMES SALMONELLA TYPHIMURIUM, Strain/Indicator: TA98, Metabolic Activation: MOUSE, LIVER, S-9, Method: STANDARD PLATE) was “active; positive”, the mutagenic call (Test System: AMES SALMONELLA TYPHIMURIUM, Strain/Indicator: TA98, Metabolic Activation: RAT, LIVER, S-9, AROCLOR 1254, Method: STANDARD PLATE) was “active; positive” and the mutagenic call (Test System: AMES SALMONELLA TYPHIMURIUM, Strain/Indicator: TA98, Metabolic Activation: RAT, LIVER, S-9, Method: STANDARD PLATE) was “active; positive”. The mutagenic call (Test System: AMES SALMONELLA TYPHIMURIUM, Strain/Indicator: TA100, Metabolic Activation: HAMSTER, LIVER, S-9, AROCLOR 1254, Method: STANDARD PLATE) was “active; positive”, the mutagenic call (Test System: AMES SALMONELLA TYPHIMURIUM, Strain/Indicator: TA100, Metabolic Activation: MOUSE, LIVER, S-9, AROCLOR 1254, Method: STANDARD PLATE) was “inactive; negative” and the mutagenic call (Test System: AMES SALMONELLA TYPHIMURIUM, Strain/Indicator: TA100, Metabolic Activation: MOUSE, LIVER, S-9, Method: STANDARD PLATE) was “inactive; negative”. The mutagenic call (Test System: AMES SALMONELLA TYPHIMURIUM, Strain/Indicator: TA100, Metabolic Activation: NONE, Method: STANDARD PLATE) was “inactive; negative”, the mutagenic call (Test System: AMES SALMONELLA TYPHIMURIUM, Strain/Indicator: TA100, Metabolic Activation: RAT, LIVER, S-9, Method: STANDARD PLATE) was “inactive; negative” and the mutagenic call (Test System: AMES SALMONELLA TYPHIMURIUM, Strain/Indicator: TA1535, Metabolic Activation: HAMSTER, LIVER, S-9, AROCLOR 1254, Method: STANDARD PLATE) was “inactive; negative”. The mutagenic call (Test System: AMES SALMONELLA TYPHIMURIUM, Strain/Indicator: TA1535, Metabolic Activation: HAMSTER, LIVER, S-9, Method: STANDARD PLATE) was “inactive; negative”, the mutagenic call (Test System: AMES SALMONELLA TYPHIMURIUM, Strain/Indicator: TA1535, Metabolic Activation: MOUSE, LIVER, S-9, AROCLOR 1254, Method: STANDARD PLATE) was “inactive; negative” and the mutagenic call (Test System: AMES SALMONELLA TYPHIMURIUM, Strain/Indicator: TA1535, Metabolic Activation: MOUSE, LIVER, S-9, Method: STANDARD PLATE) was “inactive; negative”. For the same molecule, the mutagenic call (Test System: AMES SALMONELLA TYPHIMURIUM, Strain/Indicator: TA1535, Metabolic Activation: NONE, Method: STANDARD PLATE) was “inactive; negative”, the mutagenic call (Test System: AMES SALMONELLA TYPHIMURIUM, Strain/Indicator: TA1535, Metabolic Activation: RAT, LIVER, S-9, AROCLOR 1254, Method: STANDARD PLATE) was “inactive; negative” and the mutagenic call (Test System: AMES SALMONELLA TYPHIMURIUM, Strain/Indicator: TA1535, Metabolic Activation: RAT, LIVER, S-9, Method: STANDARD PLATE) was “inactive; negative”. The mutagenic call (Test System: AMES SALMONELLA TYPHIMURIUM, Strain/Indicator: TA1537, Metabolic Activation: HAMSTER, LIVER, S-9, AROCLOR 1254, Method: STANDARD PLATE) was “active; positive”, the mutagenic call (Test System: AMES SALMONELLA TYPHIMURIUM, Strain/Indicator: TA1537, Metabolic Activation: HAMSTER, LIVER, S-9, Method: STANDARD PLATE) was “active; positive” and the mutagenic call (Test System: AMES SALMONELLA TYPHIMURIUM, Strain/Indicator: TA1537, Metabolic Activation: MOUSE, LIVER, S-9, AROCLOR 1254, Method: STANDARD PLATE) was “active; positive”. For the same molecule, the mutagenic call (Test System: AMES SALMONELLA TYPHIMURIUM, Strain/Indicator: TA1537, Metabolic Activation: RAT, LIVER, S-9, AROCLOR 1254, Method: STANDARD PLATE) was “active; positive”, the mutagenic call (Test System: AMES SALMONELLA TYPHIMURIUM, Strain/Indicator: TA1538, Metabolic Activation: HAMSTER, LIVER, S-9, AROCLOR 1254, Method: STANDARD PLATE) was “active; positive” and the mutagenic call (Test System: AMES SALMONELLA TYPHIMURIUM, Strain/Indicator: TA1538, Metabolic Activation: HAMSTER, LIVER, S-9, Method: STANDARD PLATE) was “active; positive”. For the same molecule, the mutagenic call (Test System: AMES SALMONELLA TYPHIMURIUM, Strain/Indicator: TA1538, Metabolic Activation: MOUSE, LIVER, S-9, AROCLOR 1254, Method: STANDARD PLATE) was “active; positive”, the mutagenic call (Test System: AMES SALMONELLA TYPHIMURIUM, Strain/Indicator: TA1538, Metabolic Activation: NONE, Method: STANDARD PLATE) was “inactive; negative” and the mutagenic call (Test System: AMES SALMONELLA TYPHIMURIUM, Strain/Indicator: TA1538, Metabolic Activation: RAT, LIVER, S-9, AROCLOR 1254, Method: STANDARD PLATE) was “active; positive”. The mutagenic call (Test System: AMES SALMONELLA TYPHIMURIUM, Strain/Indicator: TA1538, Metabolic Activation: RAT, LIVER, S-9, Method: STANDARD PLATE) was “active; positive”, the mutagenic call (Test System: E. COLI, Strain/Indicator: WP2 UVRA, Metabolic Activation: HAMSTER, LIVER, S-9, AROCLOR 1254, Method: STANDARD PLATE) was “inactive; negative” and the mutagenic call (Test System: E. COLI, Strain/Indicator: WP2 UVRA, Metabolic Activation: HAMSTER, LIVER, S-9, Method: STANDARD PLATE) was “inactive; negative”. The mutagenic call (Test System: E. COLI, Strain/Indicator: WP2 UVRA, Metabolic Activation: MOUSE, LIVER, S-9, AROCLOR 1254, Method: STANDARD PLATE) was “inactive; negative”, the mutagenic call (Test System: E. COLI, Strain/Indicator: WP2 UVRA, Metabolic Activation: MOUSE, LIVER, S-9, Method: STANDARD PLATE) was “inactive; negative” and the mutagenic call (Test System: E. COLI, Strain/Indicator: WP2 UVRA, Metabolic Activation: NONE, Method: STANDARD PLATE) was “inactive; negative”. The mutagenic call (Test System: E. COLI, Strain/Indicator: WP2 UVRA, Metabolic Activation: RAT, LIVER, S-9, Method: STANDARD PLATE) was “inactive; negative”.

With `O=C(O)COc1ccccc1` the mutagenic call (Test System: AMES SALMONELLA TYPHIMURIUM, Strain/Indicator: TA97, Metabolic Activation: NONE, Method: PREINCUBATION) was “inactive; negative”, the mutagenic call (Test System: AMES SALMONELLA TYPHIMURIUM, Strain/Indicator: TA97, Metabolic Activation: RAT, LIVER, S-9, AROCLOR 1254, Method: PREINCUBATION) was “inactive; negative” and the mutagenic call (Test System: AMES SALMONELLA TYPHIMURIUM, Strain/Indicator: TA100, Metabolic Activation: NONE, Method: PREINCUBATION) was “inactive; negative”. The mutagenic call (Test System: AMES SALMONELLA TYPHIMURIUM, Strain/Indicator: TA100, Metabolic Activation: RAT, LIVER, S-9, AROCLOR 1254, Method: PREINCUBATION) was “inactive; negative”, the mutagenic call (Test System: AMES SALMONELLA TYPHIMURIUM, Strain/Indicator: TA102, Metabolic Activation: NONE, Method: PREINCUBATION) was “inactive; negative” and the mutagenic call (Test System: AMES SALMONELLA TYPHIMURIUM, Strain/Indicator: TA102, Metabolic Activation: RAT, LIVER, S-9, AROCLOR 1254, Method: PREINCUBATION) was “inactive; negative”.
